ChEMBL document CHEMBL1147331, “Cytotoxic and antimalarial bisbenzylisoquinoline alkaloids from Stephania erecta” (J Nat Prod, 1993)
Converted amounts (≈) assume the structure as drawn.

Columns and labels:
[1] = Selectivity index, ratio of ED50 for human COL1 cells to ED50 for chloroquine-sensitive Plasmodium falciparum D6; assay type: toxicity, cell-based; conditions: read-out: Ratio ED50
[2] = Cytotoxicity against mouse P388 cells after 2 days by sulforhodamine B assay; assay type: cell-based; conditions: read-out: ED50
[3] = Cytotoxicity against human KBV1 cells after 3 days by sulforhodamine B assay; assay type: cell-based, KB-V1; conditions: read-out: ED50
[4] = Selectivity index, ratio of ED50 for human BCA1 cells to ED50 for chloroquine-sensitive Plasmodium falciparum D6; assay type: toxicity, cell-based; conditions: read-out: Ratio ED50
in vitro [5] = conditions: mouse, P388 cells
Description: Selectivity index, ratio of ED50 for mice (Mus musculus) P388 cells to ED50 for chloroquine-sensitive Plasmodium falciparum D6

[6] = Selectivity index, ratio of ED50 for human ZR-75-1 cells to ED50 for chloroquine-resistant Plasmodium falciparum W2; assay type: toxicity, cell-based; conditions: read-out: Ratio ED50
[7] = Selectivity index, ratio of ED50 for human COL1 cells to ED50 for chloroquine-resistant Plasmodium falciparum W2; assay type: toxicity, cell-based; conditions: read-out: Ratio ED50
[8] = Selectivity index, ratio of ED50 for human LNCaP cells to ED50 for chloroquine-resistant Plasmodium falciparum W2; assay type: toxicity, cell-based; conditions: read-out: Ratio ED50
[9] = Cytotoxicity against human LUC1 cells after 3 days by sulforhodamine B assay; assay type: cell-based; conditions: read-out: ED50
in vitro [10] = conditions: human, A431 cells
Description: Selectivity index, ratio of ED50 for human A431 cells to ED50 for chloroquine-resistant Plasmodium falciparum W2

[11] = Cytotoxicity against human HT1080 cells after 3 days by sulforhodamine B assay; assay type: cell-based, HT-1080; conditions: read-out: ED50
in vitro [12] = conditions: human, A431 cells; remark: listed apart in the source
Description: Selectivity index, ratio of ED50 for human A431 cells to ED50 for chloroquine-sensitive Plasmodium falciparum D6

[13] = Selectivity index, ratio of ED50 for human KB cells to ED50 for chloroquine-resistant Plasmodium falciparum W2; assay type: toxicity, cell-based; conditions: read-out: Ratio ED50
in vitro [14] = conditions: mouse, P388 cells; remark: listed apart in the source
Description: Selectivity index, ratio of ED50 for mice (Mus musculus) P388 cells to ED50 for chloroquine-resistant Plasmodium falciparum W2

[15] = Selectivity index, ratio of ED50 for human LUC1 cells to ED50 for chloroquine-resistant Plasmodium falciparum W2; assay type: toxicity, cell-based; conditions: read-out: Ratio ED50
[16] = Selectivity index, ratio of ED50 for human KB-V1 cells to ED50 for chloroquine-resistant Plasmodium falciparum W2; assay type: toxicity, cell-based; conditions: read-out: Ratio ED50
[17] = Selectivity index, ratio of ED50 for human KB-V1 cells to ED50 for chloroquine-sensitive Plasmodium falciparum D6; assay type: toxicity, cell-based; conditions: read-out: Ratio ED50
[18] = Selectivity index, ratio of ED50 for human LUC1 cells to ED50 for chloroquine-sensitive Plasmodium falciparum D6; assay type: toxicity, cell-based; conditions: read-out: Ratio ED50
Plasmodium falciparum [19] = assay: Antimalarial activity after 24 hrs against chloroquine-resistant Plasmodium falciparum W2 infected type A+ human erythrocytes by [3H]hypoxanthine uptake; assay type: functional; conditions: read-out: ED50 (the source's name)
[20] = Selectivity index, ratio of ED50 for human MEL2 cells to ED50 for chloroquine-sensitive Plasmodium falciparum D6; assay type: toxicity, cell-based; conditions: read-out: Ratio ED50
[21] = Selectivity index, ratio of ED50 for human ZR-75-1 cells to ED50 for chloroquine-sensitive Plasmodium falciparum D6; assay type: toxicity, cell-based; conditions: read-out: Ratio ED50
[22] = Cytotoxicity against human ZR-75-1 cells after 3 days by sulforhodamine B assay; assay type: cell-based; conditions: read-out: ED50
[23] = Cytotoxicity against human A431 cells after 3 days by sulforhodamine B assay; assay type: cell-based, A-431; conditions: read-out: ED50
[24] = Cytotoxicity against human KB cells after 3 days by sulforhodamine B assay; assay type: cell-based; conditions: read-out: ED50
[25] = Selectivity index, ratio of ED50 for human KB cells to ED50 for chloroquine-sensitive Plasmodium falciparum D6; assay type: toxicity, cell-based; conditions: read-out: Ratio ED50
Plasmodium falciparum [26] = assay: Antimalarial activity after 24 hrs against chloroquine-sensitive Plasmodium falciparum D6 infected type A+ human erythrocytes by [3H]hypoxanthine uptake; assay type: functional; conditions: read-out: ED50 (the source's name)
[27] = Selectivity index, ratio of ED50 for human LNCaP cells to ED50 for chloroquine-sensitive Plasmodium falciparum D6; assay type: toxicity, cell-based; conditions: read-out: Ratio ED50
[28] = Cytotoxicity against human SK-MEL-2 cells after 3 days by sulforhodamine B assay; assay type: cell-based; conditions: read-out: ED50
[29] = Selectivity index, ratio of ED50 for human BCA1 cells to ED50 for chloroquine-resistant Plasmodium falciparum W2; assay type: toxicity, cell-based; conditions: read-out: Ratio ED50
[30] = Selectivity index, ratio of ED50 for human HT1080 cells to ED50 for chloroquine-sensitive Plasmodium falciparum D6; assay type: toxicity, cell-based, HT-1080; conditions: read-out: Ratio ED50
[31] = Cytotoxicity against human BCA1 cells after 3 days by sulforhodamine B assay; assay type: cell-based; conditions: read-out: ED50
[32] = Cytotoxicity against human Col1 cells after 3 days by sulforhodamine B assay; assay type: cell-based; conditions: read-out: ED50
[33] = Cytotoxicity against human LNCAP cells after 3 days by sulforhodamine B assay; assay type: cell-based; conditions: read-out: ED50
[34] = Selectivity index, ratio of ED50 for human HT1080 cells to ED50 for chloroquine-resistant Plasmodium falciparum W2; assay type: toxicity, cell-based, HT-1080; conditions: read-out: Ratio ED50
[35] = Selectivity index, ratio of ED50 for human MEL2 cells to ED50 for chloroquine-resistant Plasmodium falciparum W2; assay type: toxicity, cell-based; conditions: read-out: Ratio ED50

Row | SMILES | selectivity ratio [1] | CC50 at 48 h [2] [µg/mL] | CC50 at 72 h [3] [µg/mL] | selectivity ratio [4] | selectivity ratio (in vitro [5]) | selectivity ratio [6] | selectivity ratio [7] | CC50 at 72 h [9] [µg/mL] | CC50 at 72 h [11] [µg/mL] | selectivity ratio (in vitro [14]) | EC50 (Plasmodium falciparum [19]) [µg/mL] | selectivity ratio [21] | CC50 at 72 h [22] [µg/mL] | CC50 at 72 h [23] [µg/mL] | CC50 at 72 h [24] [µg/mL] | EC50 (Plasmodium falciparum [26]) [µg/mL] | CC50 at 72 h [28] [µg/mL] | CC50 at 72 h [31] [µg/mL] | CC50 at 72 h [32] [µg/mL] | CC50 at 72 h [33] [µg/mL] | further results
1 | COc1ccc2cc1Oc1ccc(cc1)C[C@H]1c3cc(c(OC)cc3CCN1C)Oc1c(O)c(OC)cc3c1[C@@H](C2)NCC3 | 69 | 0.1 (≈ 0.168 µM) | 8.1 (≈ 13.6 µM) | 60 | 2 | 13 | 38 | 8.4 (≈ 14.1 µM) | 2.2 (≈ 3.7 µM) | 1 | 0.125 (≈ 0.21 µM) | 23 | 1.2 (≈ 2.02 µM) | 4.2 (≈ 7.06 µM) | 6.3 (≈ 10.6 µM) | 0.0686 (≈ 0.115 µM) | 15.4 (≈ 25.9 µM) | 4.1 (≈ 6.89 µM) | 4.7 (≈ 7.9 µM) | 6.6 (≈ 11.1 µM) | selectivity ratio [8]: 53; selectivity ratio (in vitro [10]): 34; selectivity ratio (in vitro [12]): 61; selectivity ratio [13]: 50; selectivity ratio [15]: 67; selectivity ratio [16]: 65; selectivity ratio [17]: 118; selectivity ratio [18]: 123; selectivity ratio [20]: 225; selectivity ratio [25]: 92; selectivity ratio [27]: 97; selectivity ratio [29]: 33; selectivity ratio [30]: 32; selectivity ratio [34]: 18
2 | COc1ccc2cc1Oc1ccc(cc1)C[C@H]1c3c(cc(O)c(OC)c3Oc3cc4c(cc3OC)CCN(C)[C@@H]4C2)CCN1C |  | 3.7 (≈ 6.08 µM) | 7.4 (≈ 12.2 µM) |  |  | 43 |  | 8.6 (≈ 14.1 µM) | 7.2 (≈ 11.8 µM) | 76 | 0.31 (≈ 0.509 µM) | 4 | 2.1 (≈ 3.45 µM) | 8.9 (≈ 14.6 µM) | 6.4 (≈ 10.5 µM) | 0.13 (≈ 0.214 µM) | 12.8 (≈ 21 µM) | 4.7 (≈ 7.72 µM) | 7.5 (≈ 12.3 µM) | 8.3 (≈ 13.6 µM) | 
3 | CCN(CC)CCCC(C)Nc1ccnc2cc(Cl)ccc12 (stereo not given) [CHLOROQUINE] |  | > 5 | 7.8 (≈ 24.4 µM) |  |  |  |  | > 20 | 6.5 (≈ 20.3 µM) |  | 0.0317 (≈ 0.0991 µM) |  | 15.8 (≈ 49.4 µM) | > 20 | 17.4 (≈ 54.4 µM) | 0.0025 (≈ 0.00782 µM) | > 20 | > 20 | 10.1 (≈ 31.6 µM) | 14.3 (≈ 44.7 µM) | 
4 | OC(c1cc(C(F)(F)F)nc2c(C(F)(F)F)cccc12)C1CCCCN1 (stereo not given) [MEFLOQUINE] | 111 | 0.2 (≈ 0.529 µM) | 1.1 (≈ 2.91 µM) | 588 | 22 | 2250 | 833 | 7.7 (≈ 20.4 µM) | 2.3 (≈ 6.08 µM) | 166 | 0.0012 (≈ 0.00317 µM) | 300 | 1.2 (≈ 3.17 µM) | 3 (≈ 7.93 µM) | 3.5 (≈ 9.25 µM) | 0.009 (≈ 0.0238 µM) | 8.9 (≈ 23.5 µM) | 5.3 (≈ 14 µM) | 1 (≈ 2.64 µM) | 2.3 (≈ 6.08 µM) | selectivity ratio [8]: 1920; selectivity ratio (in vitro [10]): 2500; selectivity ratio (in vitro [12]): 333; selectivity ratio [16]: 917; selectivity ratio [17]: 122; selectivity ratio [20]: 989; selectivity ratio [25]: 389; selectivity ratio [27]: 256; selectivity ratio [35]: 7420; selectivity ratio [29]: 4420; selectivity ratio [30]: 256; selectivity ratio [34]: 1920
